According to patent publication US20240287070A1, “FUSED HETEROCYCLIC DERIVATIVES” (Janssen Sciences Ireland Unlimited Company, priority 2021, published 2024):

Tests used:
[1] = Human liver microsome stability; assay type: in vitro ADME; conditions: 1 μM compound, NADPH 1 mM, 37° C., 0-60 min; for HLM Metabolism t1/2: pooled human liver microsomes 0.5 mg/mL; for half-life at 1 μM: human, pooled human liver microsomes, pH 7.4, pooled human liver microsomes 0.5 mg/mL, read-out: HLM Metabolism t1/2
Outline: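 Half-life came from elimination rate constant (negative slope of ln compound/internal standard area ratio over time), measured by cassette LC-MS after acetonitrile quench. Human liver microsome reactions, one replicate per compound, were initiated with NADPH (1 mM final) and sampled at six points up to 60 min.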

HepG2 or HepG2.117 cells = experiment: Cytotoxicity, ATPlite Luminescence Assay; assay type: cell-based, human; conditions: 3-days incubation unless marked with *
Outline: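 Compounds were added to cells and incubated 3 or 4 days. ATP content was then measured by luminescence to gauge cell viability.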

[2] = test system: HBV (HepG2.117 cell line, inducibly HBV producing); experiment: Anti-HBV activity, intracellular HBV DNA by real-time PCR in HepG2.117 cell line; assay type: cell-based, hepatitis B virus; conditions: HepG2.117 cells, 3 days of treatment
Outline: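 Readout is intracellular HBV DNA, measured by real-time PCR with HBV-specific primers and probe after 3 days of exposure to serial compound dilutions. Cells are the stable HepG2.117 line, where HBV replication is induced in the absence of doxycycline.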

| Structure (SMILES) | HLM Metabolism t1/2 [1] [h] | CC50 (HepG2 or HepG2.117 cells) [µM] | EC50 [2] [µM] | half-life at 1 μM [1] [h] |
| --- | --- | --- | --- | --- |
| C[C@@H]1Cc2nn3c(c2CN1C(=O)c1ccc(Cl)c(C(F)(F)F)c1)C(=O)N([C@H](C)c1ccc([S@](C)(=O)=NC#N)cc1)C[C@H]3C (relative stereo) [Compound 20B, N—((S*)-(4-((R*)-1-((3R,7R)-2-(4-chloro-3-(trifluoromethyl)benzoyl)-3,7-dimethyl-10-oxo-1,3,4,7,8,10-hexahydropyrido[4′,3′:3,4]pyrazolo[1,5-a]pyrazin-9(2H)-yl)ethyl)phenyl)(methyl)(oxo)-16-sulfaneylidene)cyanamide] | 2.6 | > 50 | 0.089 | – |
| C[C@@H]1Cc2nn3c(c2CN1C(=O)c1ccc(Cl)c(C(F)(F)F)c1)C(=O)N([C@@H](C)c1ccc([S@@](C)(=O)=NC#N)cc1)C[C@H]3C (relative stereo) [Compound 20C, N—((R*)-(4-((S*)-1-((3R,7R)-2-(4-chloro-3-(trifluoromethyl)benzoyl)-3,7-dimethyl-10-oxo-1,3,4,7,8,10-hexahydropyrido[4′,3′:3,4]pyrazolo[1,5-a]pyrazin-9(2H)-yl)ethyl)phenyl)(methyl)(oxo)-16-sulfaneylidene)cyanamide] | 1.02 | > 50 | 0.016 | – |
| C[C@@H]1Cc2nn3c(c2CN1C(=O)c1ccc(Cl)c(C(F)(F)F)c1)C(=O)N([C@@H](C)c1ccc([S@](C)(=O)=NC#N)cc1)C[C@H]3C (relative stereo) [Compound 20D, N—((S*)-(4-((S*)-1-((3R,7R)-2-(4-chloro-3-(trifluoromethyl)benzoyl)-3,7-dimethyl-10-oxo-1,3,4,7,8,10-hexahydropyrido[4′,3′:3,4]pyrazolo[1,5-a]pyrazin-9(2H)-yl)ethyl)phenyl)(methyl)(oxo)-16-sulfaneylidene)cyanamide] | 1.47 | > 50 | 0.032 | – |
| Cc1ncnn1-c1ccc(C(C)N2C[C@@H](C)n3nc4c(c3C2=O)CN(C(=O)c2ccc(Cl)c(Cl)c2)[C@H](C)C4)cn1 (relative stereo) [Compound 25A, (3R,7R)-2-(3,4-dichlorobenzoyl)-3,7-dimethyl-9-((R*)-1-(6-(5-methyl-11H-1,2,4-triazol-1-yl)pyridin-3-yl)ethyl)-1,2,3,4,8,9-hexahydropyrido[4′,3′:3,4]pyrazolo[1,5-a]pyrazin-10(7H)-one] | >3 | > 50 | 0.23 | – |
| C[C@@H]1Cc2nn3c(c2CN1C(=O)c1ccc(Cl)c(C(F)(F)F)c1)C(=O)N([C@H](C)c1ccc([S@@]2(=O)=NCCC2)nc1)C[C@H]3C (relative stereo) [Compound 30A, (3R,7R)-2-(4-chloro-3-(trifluoromethyl)benzoyl)-3,7-dimethyl-9-((R*)-1-(6-((R*)-1-oxido-4,5-dihydro-3H-116-isothiazol-1-yl)pyridin-3-yl)ethyl)-1,2,3,4,8,9-hexahydropyrido[4′,3′:3,4]pyrazolo[1,5-a]pyrazin-10(7H)-one] | 0.495 | > 50 | 0.14 | – |
| C[C@@H]1Cc2nn3c(c2CN1C(=O)c1ccc(Cl)c(C(F)(F)F)c1)C(=O)N([C@@H](C)c1ccc([S@@]2(=O)=NCCC2)nc1)C[C@H]3C (relative stereo) [Compound 30B, (3R,7R)-2-(4-chloro-3-(trifluoromethyl)benzoyl)-3,7-dimethyl-9-((S*)-1-(6-((R*)-1-oxido-4,5-dihydro-3H-116-isothiazol-1-yl)pyridin-3-yl)ethyl)-1,2,3,4,8,9-hexahydropyrido[4′,3′:3,4]pyrazolo[1,5-a]pyrazin-10(7H)-one] | 0.315 | > 50 | 0.074 | – |
| C[C@@H]1Cc2nn3c(c2CN1C(=O)c1ccc(Cl)c(C(F)(F)F)c1)C(=O)N([C@H](C)c1ccc([S@]2(=O)=NCCC2)nc1)C[C@H]3C (relative stereo) [Compound 30C, (3R,7R)-2-(4-chloro-3-(trifluoromethyl)benzoyl)-3,7-dimethyl-9-((R*)-1-(6-((S*)-1-oxido-4,5-dihydro-3H-116-isothiazol-1-yl)pyridin-3-yl)ethyl)-1,2,3,4,8,9-hexahydropyrido[4′,3′:3,4]pyrazolo[1,5-a]pyrazin-10(7H)-one] | 0.685 | > 50 | 0.31 | – |
| C[C@@H]1Cc2nn3c(c2CN1C(=O)c1ccc(Cl)c(C(F)(F)F)c1)C(=O)N([C@@H](C)c1ccc([S@]2(=O)=NCCC2)nc1)C[C@H]3C (relative stereo) [Compound 30D, (3R,7R)-2-(4-chloro-3-(trifluoromethyl)benzoyl)-3,7-dimethyl-9-((S*)-1-(6-((S*)-1-oxido-4,5-dihydro-3H-116-isothiazol-1-yl)pyridin-3-yl)ethyl)-1,2,3,4,8,9-hexahydropyrido[4′,3′:3,4]pyrazolo[1,5-a]pyrazin-10(7H)-one] | 0.255 | > 50 | 0.047 | – |
| CC(c1cc(F)c(=O)n(C)c1)N1C[C@@H](C)n2nc3c(c2C1=O)CN(C(=O)c1ccc(Cl)c(Cl)c1)[C@H](C)C3 (relative stereo) [Compound 45A, (3R,7R)-2-(3,4-dichlorobenzoyl)-9-((R*)-1-(5-fluoro-1-methyl-6-oxo-,6-dihydropyridin-3-yl)ethyl)-3,7-dimethyl-1,2,3,4,8,9-hexahydropyrido[4′,3′:3,4]pyrazolo [1,5-a]pyrazin-10(7H)-one] | >3 | > 50 | 0.57 | – |
| CC(c1ccc(C(C)(C)O)nc1)N1C[C@@H](C)n2nc3c(c2C1=O)CN(C(=O)c1ccc(Cl)c(Cl)c1)[C@H](C)C3 (single isomer, unassigned) [Compound 2B, (3R,7R)-2-(3,4-dichlorobenzoyl)-9-((S*)-1-(6-(2-hydroxypropan-2-yl)pyridin-3-yl)ethyl)-3,7-dimethyl-1,2,3,4,8,9-hexahydropyrido[4′,3′:3,4]pyrazolo[1,5-a]pyrazin-10(7H)-one] | 2.3 | > 50 | 0.015 | – |
| CC(c1cnc(C2CC2)cn1)N1C[C@@H](C)n2nc3c(c2C1=O)CN(C(=O)c1ccc(Cl)c(Cl)c1)[C@H](C)C3 (single isomer, unassigned) [Compound 3A, (3R,7R)-9-((R*)-1-(5-cyclopropylpyrazin-2-yl)ethyl)-2-(3,4-dichlorobenzoyl)-3,7-dimethyl-1,2,3,4,8,9-hexahydropyrido[4′,3′:3,4]pyrazolo[1,5-a]pyrazin-10(7H)-one] | – | 33.7 | 0.068 | > 3 |
| CC(c1cnc(C2CC2)cn1)N1C[C@@H](C)n2nc3c(c2C1=O)CN(C(=O)c1ccc(Cl)c(Cl)c1)[C@H](C)C3 (single isomer, unassigned) [Compound 3B, (3R,7R)-9-((S*)-1-(5-cyclopropylpyrazin-2-yl)ethyl)-2-(3,4-dichlorobenzoyl)-3,7-dimethyl-1,2,3,4,8,9-hexahydropyrido[4′,3′:3,4]pyrazolo[1,5-a]pyrazin-10(7H)-one] | 2.22 | 16.4 | 0.023 | – |
| Cc1ncc(C(C)N2C[C@@H](C)n3nc4c(c3C2=O)CN(C(=O)c2ccc(Cl)c(Cl)c2)[C@H](C)C4)cn1 (single isomer, unassigned) [Compound 4B, (3R,7R)-2-(3,4-dichlorobenzoyl)-3,7-dimethyl-9-((S*)-1-(2-methylpyrimidin-5-yl)ethyl)-1,2,3,4,8,9-hexahydropyrido[4′,3′:3,4]pyrazolo[1,5-a]pyrazin-10(7H)-one] | >3 | > 50 | 0.057 | – |
| CC(c1ccc(-n2cncn2)nc1)N1C[C@@H](C)n2nc3c(c2C1=O)CN(C(=O)c1ccc(Cl)c(Cl)c1)[C@H](C)C3 (single isomer, unassigned) [Compound 5B, (3R,7R)-9-((S*)-1-(6-(1H-1,2,4-triazol-1-yl)pyridin-3-yl)ethyl)-2-(3,4-dichlorobenzoyl)-3,7-dimethyl-1,2,3,4,8,9-hexahydropyrido[4′,3′:3,4]pyrazolo[1,5-a]pyrazin-10(7H)-one] | 2.08 | 28.4 | 0.017 | – |
| Cc1ccc(C(C)N2C[C@@H](C)n3nc4c(c3C2=O)CN(C(=O)c2ccc(Cl)c(Cl)c2)[C@H](C)C4)nn1 (single isomer, unassigned) [Compound 6B, (3R,7R)-2-(3,4-dichlorobenzoyl)-3,7-dimethyl-9-((S*)-1-(6-methylpyridazin-3-yl)ethyl)-1,2,3,4,8,9-hexahydropyrido[4′,3′:3,4]pyrazolo[1,5-a]pyrazin-10(7H)-one] | >3 | > 50 | 0.065 | – |
| CC(c1cnc(C(F)(F)F)cn1)N1C[C@@H](C)n2nc3c(c2C1=O)CN(C(=O)c1ccc(Cl)c(Cl)c1)[C@H](C)C3 (single isomer, unassigned) [Compound 7A, (3R,7R)-2-(3,4-dichlorobenzoyl)-3,7-dimethyl-9-((R*)-1-(5-(trifluoromethyl)pyrazin-2-yl)ethyl)-1,2,3,4,8,9-hexahydropyrido[4′,3′:3,4]pyrazolo[1,5-a]pyrazin-10(7H)-one] | – | 44.8 | 0.52 | > 3 |
